According to article PMC5075052, “Modulation of the Substitution Pattern of 5-Aryl-2-Aminoimidazoles Allows Fine-Tuning of Their Antibiofilm Activity Spectrum and Toxicity” (Antimicrobial Agents and Chemotherapy, 2016):

What was measured:
[1] = tested on: eukaryotic tumor cell lines, bone cells, and the nematode Caenorhabditis elegans; design: method as in PMID 25325155; conditions: C. elegans; cited from earlier work
[2] = tested on: C. albicans SC5314 + S. aureus SH1000; assay: Mixed C. albicans-S. aureus biofilm, selective plating CFU; format: cell-based, Candida albicans + Staphylococcus aureus; conditions: 37°C
Description: Overnight cultures of C. albicans SC5314 (YPD, 30°C) and S. aureus SH1000 (LB, 37°C) were washed with PBS, after which they were diluted in RPMI 1640 medium to obtain cell suspensions of 10^6 cells/ml for fungal cells and 10^8 cells/ml for bacteria. Equal volumes of these cell suspensions were mixed, and 100 μl of this mixed cell suspension together with compound was added to the wells of a microtiter plate in triplicate. Concentrations of 25 μM (0.0625% DMSO or ethanol) and 100 μM (0.25% DMSO or ethanol) were tested. The plates were incubated at 37°C for 90 min. After incubation, the wells were washed twice with PBS, and 200 μl of fresh RPMI 1640 medium with or without compounds was added in triplicate to the wells. After 24 h of incubation at 37°C, the medium was removed and the biofilm was washed with PBS. Next, the cells were resuspended in 100 μl of PBS by scraping them off, sonicated (1 min, 45 kHz; USC300-T; VWR, Radnor, PA, USA), and vigorously pipetted up and down. Finally, dilution series were made, and quantification of the S. aureus SH1000 and C. albicans SC5314 populations was performed using selective plating on TSA plates containing 25 mg/liter amphotericin B and YPD plates containing 100 μg/ml tetracycline, respectively. The percentage of C. albicans SC5314 and S. aureus SH1000 cells relative to the number of cells after DMSO or ethanol control treatment was determined.

[3] = tested on: C. albicans SC5314 + E. coli MG1655; assay: Mixed C. albicans-E. coli biofilm, selective plating CFU; format: cell-based, Candida albicans + Escherichia coli; conditions: 37°C
Description: Overnight cultures of C. albicans SC5314 (YPD) and E. coli MG1655 (TSB) were washed three times with PBS, after which they were diluted in RPMI 1640 medium to OD600s of 1 and 0.01, respectively. Equal volumes of these cell suspensions were mixed, and 100 μl of this mixed cell suspension together with compound was added to the wells of a microtiter plate in triplicate. Concentrations of 25 μM (0.0625% DMSO or ethanol) and 100 μM (0.25% DMSO or ethanol) were tested. After 24 h of incubation at 37°C, the medium was removed and the biofilm was washed with PBS. Next, the cells were resuspended in 100 μl of PBS by scraping them off, sonicated (1 min, 45 kHz; USC300-T; VWR, Radnor, PA, USA), and vigorously pipetted up and down. Finally, dilution series were made, and quantification of the E. coli MG1655 and C. albicans SC5314 populations was performed using selective plating on tryptic soy agar (TSA) plates containing 25 mg/liter amphotericin B and YPD plates containing 100 μg/ml tetracycline, respectively. The percentage of C. albicans SC5314 and E. coli MG1655 cells relative to the number of cells after DMSO or ethanol control treatment was determined.

osteoblasts (OB) = assay: Osteogenic differentiation, calcium and DNA assay; format: cell-based, human; conditions: 12.5 μM; for calcium deposition of OB (normalized by DNA): osteogenic medium, versus solvent control
Description: (§1) The effects of the substances on the osteogenic differentiation potential were assessed as previously described ([76]). Only the substances that allowed survival of the cells for more than 3 weeks, which is the time needed for mature osteogenic differentiation, were tested. Briefly, osteoblasts and bone marrow-derived mesenchymal stem cells were cultured in a positive solvent control (osteogenic medium with 0.5% DMSO or ethanol background), a negative control (medium without osteogenic supplements), and treated samples (osteogenic medium, 0.5% DMSO or ethanol background, and 12.5 μM test compound) with four repeats per condition. The cells in the mesenchymal stem cell and osteoblast cultures were harvested after 3 or 5 weeks, respectively, for the calcium and DNA assay.
(§2) The calcium deposition of osteoblasts and mesenchymal stem cells was measured with the calcium CPC LiquiColor test (Stanbio Laboratory, Boerne, TX) as previously described ([76]). Briefly, cell cultures were extracted with 5% trichloroacetic acid (500 μl per sample), o-cresolphthalein complex was added, and the calcium content was determined spectrophotometrically at 550 nm. The DNA content was determined as previously described ([76]). DNA values were used to normalize the calcium content. Four wells per condition were examined, and two samples from each well were taken for each assay.

[4] = tested on: bone marrow-derived mesenchymal stem cells (MSC); assay: Osteogenic differentiation, calcium and DNA assay; format: cell-based, human; conditions: 12.5 μM; for calcium deposition of MSC (normalized by DNA): osteogenic medium, versus solvent control
Description: as §1, §2

[5] = 25 μM compound, relative to solvent control

Row | SMILES | toxicity (previously reported) [1] | % CFU survival, C. albicans ([2]; 25 μM compound) [%] | % CFU survival, S. aureus ([2]; 25 μM compound) [%] | % CFU survival, C. albicans ([2]; 100 μM compound) [%] | % CFU survival, S. aureus ([2]; 100 μM compound) [%] | % CFU survival, E. coli ([3]; 25 μM compound) [%] | % CFU survival, C. albicans [3, 5] [%] | % CFU survival, C. albicans ([3]; 100 μM compound) [%] | % CFU survival, E. coli ([3]; 100 μM compound) [%] | survival of OB allowed (osteoblasts (OB)) | calcium deposition of OB (normalized by DNA) (osteoblasts (OB)) | survival of MSC allowed [4] | calcium deposition of MSC (normalized by DNA) [4]
1 | CCCCCCCCn1c(-c2ccc(Cl)cc2)cnc1N [Compound 2] | strong toxicity | 183.8 | 87.7 | 0.9 | 0.2 | 158.6 | 104.9 | 0.0 | 0.1 |  |  |  | 
2 | CC(C)CNc1ncc(-c2ccc(Cl)cc2)[nH]1 [Compound 3] |  | 165.7 | 124.6 | 141.3 | 51.8 | 138.5 | 143.4 | 59.6 | 63.0 |  |  |  | 
3 | Clc1ccc(-c2cnc(NC3CCCC3)[nH]2)cc1 [Compound 5] |  | 232.4 | 75.4 | 120.6 | 74.5 | 100.6 | 100.8 | 38.3 | 105.6 |  |  |  | 
4 | Brc1ccc(-c2cnc(NCCn3cc(C4CC4)nn3)[nH]2)cc1 [Compound 6] | higher level of toxicity |  |  |  |  |  |  |  |  |  |  |  | 
5 | CCCCCCCCn1c(-c2ccc(Cl)cc2)cnc1NCC(C)C [Compound 8b] |  |  |  |  |  |  |  |  |  | more than 3 weeks | induced | more than 3 weeks | induced
6 | CCCCCCCCn1c(-c2ccc(Br)cc2)cnc1NCC(C)C [Compound 8c] |  |  |  |  |  |  |  |  |  | more than 3 weeks | induced | more than 3 weeks | induced
7 | CCCCCCCCn1c(-c2ccc(Cl)c(Cl)c2)cnc1NCC(C)C [Compound 8d] |  |  |  |  |  |  |  |  |  | more than 3 weeks | none of the compounds at 12.5 μM negatively affected the calcium deposition | more than 3 weeks | none of the compounds at 12.5 μM negatively affected the calcium deposition
8 | CCCCCCCCn1c(-c2ccc(Br)cc2)cnc1NC1CCCC1 [Compound 8g] |  |  |  |  |  |  |  |  |  | more than 3 weeks | induced | more than 3 weeks | induced
9 | CCCCCCCCn1c(-c2ccc(Cl)c(Cl)c2)cnc1NC1CCCC1 [Compound 8h] |  |  |  |  |  |  |  |  |  | more than 3 weeks | induced | more than 3 weeks | induced
